Test results reported in PubChem BioAssay (NCI).
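The concentration for 50% growth inhibition is given as GI50. TGI is the concentration that stops growth completely.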

What was measured:
Test in all cases: growth of human tumour cells (NCI), 384-well format
SR leukemia = system: SR leukemia
M14 melanoma = system: M14 melanoma
SNB-19 CNS = system: SNB-19 CNS
UACC-62 melanoma = system: UACC-62 melanoma
SF-539 CNS = system: SF-539 CNS
HOP-62 NSCLC = system: HOP-62 NSCLC
HOP-92 NSCLC = system: HOP-92 NSCLC
EKVX NSCLC = system: EKVX NSCLC
NCI-H226 lung = system: NCI-H226 lung
OVCAR-4 ovarian = system: OVCAR-4 ovarian
TK-10 renal = system: TK-10 renal
LOX IMVI melanoma = system: LOX IMVI melanoma
SK-MEL-28 melanoma = system: SK-MEL-28 melanoma
HT29 colon = system: HT29 colon
NCI-H23 lung = system: NCI-H23 lung
MDA-MB-435 melanoma = system: MDA-MB-435 melanoma
HCT-116 colon = system: HCT-116 colon
HCC-2998 colon = system: HCC-2998 colon
MDA-MB-231 breast = system: MDA-MB-231 breast
SK-OV-3 ovarian = system: SK-OV-3 ovarian
MOLT-4 leukemia = system: MOLT-4 leukemia
A549 NSCLC = system: A549 NSCLC
CAKI-1 renal = system: CAKI-1 renal
NCI/ADR-RES ovarian = system: NCI/ADR-RES ovarian
HCT-15 colon = system: HCT-15 colon
SNB-75 CNS = system: SNB-75 CNS
U251 glioblastoma = system: U251 glioblastoma
MCF7 breast = system: MCF7 breast
PC-3 prostate = system: PC-3 prostate
RXF 393 renal = system: RXF 393 renal
SN12C renal = system: SN12C renal
OVCAR-5 ovarian = system: OVCAR-5 ovarian
T-47D breast = system: T-47D breast
RPMI-8226 leukemia = system: RPMI-8226 leukemia
NCI-H522 lung = system: NCI-H522 lung
A498 renal = system: A498 renal
NCI-H322M lung = system: NCI-H322M lung
IGROV1 ovarian = system: IGROV1 ovarian
OVCAR-3 ovarian = system: OVCAR-3 ovarian
MALME-3M melanoma = system: MALME-3M melanoma
SF-295 CNS = system: SF-295 CNS
BT-549 breast = system: BT-549 breast
COLO 205 colon = system: COLO 205 colon
UACC-257 melanoma = system: UACC-257 melanoma
DU-145 prostate = system: DU-145 prostate
ACHN renal = system: ACHN renal
KM12 colon = system: KM12 colon
NCI-H460 NSCLC = system: NCI-H460 NSCLC
HL-60(TB) leukemia = system: HL-60(TB) leukemia
OVCAR-8 ovarian = system: OVCAR-8 ovarian
SK-MEL-5 melanoma = system: SK-MEL-5 melanoma
SF-268 CNS = system: SF-268 CNS
HS 578T breast = system: HS 578T breast
MDA-MB-468 breast = system: MDA-MB-468 breast

COC(=O)c1ccc2c(c1)nc(NC(=O)c1ccccc1)n2CCCc1ccccc1
GI50 (SR leukemia): 0.203 µM | TGI (SR leukemia): 0.44 µM | GI50 (M14 melanoma): 0.519 µM | TGI (M14 melanoma): 3.05 µM | GI50 (SNB-19 CNS): 2.21 µM | TGI (SNB-19 CNS): 20 µM | GI50 (UACC-62 melanoma): 2.45 µM | TGI (UACC-62 melanoma): > 100 µM | GI50 (SF-539 CNS): 2.13 µM | TGI (SF-539 CNS): 18 µM | GI50 (HOP-62 NSCLC): 0.469 µM | TGI (HOP-62 NSCLC): 3.55 µM | GI50 (HOP-92 NSCLC): 3.93 µM | TGI (HOP-92 NSCLC): > 100 µM | GI50 (EKVX NSCLC): 1.46 µM | TGI (EKVX NSCLC): > 100 µM | GI50 (NCI-H226 lung): 3.41 µM | TGI (NCI-H226 lung): 48.9 µM | GI50 (OVCAR-4 ovarian): 11.5 µM | TGI (OVCAR-4 ovarian): 65.9 µM | GI50 (TK-10 renal): 2.63 µM | TGI (TK-10 renal): 34.5 µM | GI50 (LOX IMVI melanoma): 0.946 µM | TGI (LOX IMVI melanoma): 2.81 µM | GI50 (SK-MEL-28 melanoma): 3.12 µM | TGI (SK-MEL-28 melanoma): > 100 µM | GI50 (HT29 colon): 2.72 µM | TGI (HT29 colon): > 100 µM | GI50 (NCI-H23 lung): 1.86 µM | TGI (NCI-H23 lung): > 100 µM | GI50 (MDA-MB-435 melanoma): 4.03 µM | TGI (MDA-MB-435 melanoma): > 100 µM | GI50 (HCT-116 colon): 0.852 µM | TGI (HCT-116 colon): > 100 µM | GI50 (HCC-2998 colon): 1.85 µM | TGI (HCC-2998 colon): > 100 µM | GI50 (MDA-MB-231 breast): 7.06 µM | TGI (MDA-MB-231 breast): > 100 µM | GI50 (SK-OV-3 ovarian): 0.973 µM | TGI (SK-OV-3 ovarian): > 100 µM | GI50 (MOLT-4 leukemia): 0.222 µM | TGI (MOLT-4 leukemia): 0.413 µM | GI50 (A549 NSCLC): 3.61 µM | TGI (A549 NSCLC): > 100 µM | GI50 (CAKI-1 renal): 6.36 µM | TGI (CAKI-1 renal): > 100 µM | GI50 (NCI/ADR-RES ovarian): 0.458 µM | TGI (NCI/ADR-RES ovarian): 2.16 µM | GI50 (HCT-15 colon): 0.478 µM | TGI (HCT-15 colon): 4 µM | GI50 (SNB-75 CNS): 3.91 µM | TGI (SNB-75 CNS): 66.8 µM | GI50 (U251 glioblastoma): 0.673 µM | TGI (U251 glioblastoma): 11.3 µM | GI50 (MCF7 breast): 1.65 µM | TGI (MCF7 breast): > 100 µM | GI50 (PC-3 prostate): 4.95 µM | TGI (PC-3 prostate): > 100 µM | GI50 (RXF 393 renal): 3.11 µM | TGI (RXF 393 renal): > 100 µM | GI50 (SN12C renal): 2.38 µM | TGI (SN12C renal): 8.75 µM | GI50 (OVCAR-5 ovarian): 3.94 µM | TGI (OVCAR-5 ovarian): 31.6 µM | GI50 (T-47D breast): 4.13 µM | TGI (T-47D breast): > 100 µM | GI50 (RPMI-8226 leukemia): 1.5 µM | TGI (RPMI-8226 leukemia): 4.6 µM | GI50 (NCI-H522 lung): 1.49 µM | TGI (NCI-H522 lung): 9.61 µM | GI50 (A498 renal): 2.08 µM | TGI (A498 renal): 15.9 µM | GI50 (NCI-H322M lung): 0.884 µM | TGI (NCI-H322M lung): 8.59 µM | GI50 (IGROV1 ovarian): 2.04 µM | TGI (IGROV1 ovarian): > 100 µM | GI50 (OVCAR-3 ovarian): 1.84 µM | TGI (OVCAR-3 ovarian): 69.4 µM | GI50 (MALME-3M melanoma): 2.9 µM | TGI (MALME-3M melanoma): > 100 µM | GI50 (SF-295 CNS): 3.11 µM | TGI (SF-295 CNS): > 100 µM | GI50 (BT-549 breast): 0.741 µM | TGI (BT-549 breast): 6.46 µM | GI50 (COLO 205 colon): 2.04 µM | TGI (COLO 205 colon): 5.78 µM | GI50 (UACC-257 melanoma): 2.32 µM | TGI (UACC-257 melanoma): 9.95 µM | GI50 (DU-145 prostate): 1.77 µM | TGI (DU-145 prostate): 24.4 µM | GI50 (ACHN renal): 3.99 µM | TGI (ACHN renal): 31.7 µM | GI50 (KM12 colon): 2.33 µM | TGI (KM12 colon): > 100 µM | GI50 (NCI-H460 NSCLC): 0.342 µM | TGI (NCI-H460 NSCLC): 1.14 µM | GI50 (HL-60(TB) leukemia): 0.413 µM | TGI (HL-60(TB) leukemia): 1.75 µM | GI50 (OVCAR-8 ovarian): 1.58 µM | TGI (OVCAR-8 ovarian): 5.25 µM | GI50 (SK-MEL-5 melanoma): 0.395 µM | TGI (SK-MEL-5 melanoma): 1.67 µM | GI50 (SF-268 CNS): 1.81 µM | TGI (SF-268 CNS): > 100 µM | GI50 (HS 578T breast): 6.95 µM | TGI (HS 578T breast): > 100 µM | GI50 (MDA-MB-468 breast): 2.19 µM | TGI (MDA-MB-468 breast): > 100 µM
